Test results reported in patent US8691865B2 (AbbVie Inc., priority 2008, dated 2014).

These compounds were tested against human Cav2.2 (Homo sapiens, UniProt Q00975) (assay: Assessment of calcium channel activity using FLIPR (Ca2+ influx in IMR32 cells)). Conditions: not given.
Chain of human Cav2.2 (Q00975 whole entry): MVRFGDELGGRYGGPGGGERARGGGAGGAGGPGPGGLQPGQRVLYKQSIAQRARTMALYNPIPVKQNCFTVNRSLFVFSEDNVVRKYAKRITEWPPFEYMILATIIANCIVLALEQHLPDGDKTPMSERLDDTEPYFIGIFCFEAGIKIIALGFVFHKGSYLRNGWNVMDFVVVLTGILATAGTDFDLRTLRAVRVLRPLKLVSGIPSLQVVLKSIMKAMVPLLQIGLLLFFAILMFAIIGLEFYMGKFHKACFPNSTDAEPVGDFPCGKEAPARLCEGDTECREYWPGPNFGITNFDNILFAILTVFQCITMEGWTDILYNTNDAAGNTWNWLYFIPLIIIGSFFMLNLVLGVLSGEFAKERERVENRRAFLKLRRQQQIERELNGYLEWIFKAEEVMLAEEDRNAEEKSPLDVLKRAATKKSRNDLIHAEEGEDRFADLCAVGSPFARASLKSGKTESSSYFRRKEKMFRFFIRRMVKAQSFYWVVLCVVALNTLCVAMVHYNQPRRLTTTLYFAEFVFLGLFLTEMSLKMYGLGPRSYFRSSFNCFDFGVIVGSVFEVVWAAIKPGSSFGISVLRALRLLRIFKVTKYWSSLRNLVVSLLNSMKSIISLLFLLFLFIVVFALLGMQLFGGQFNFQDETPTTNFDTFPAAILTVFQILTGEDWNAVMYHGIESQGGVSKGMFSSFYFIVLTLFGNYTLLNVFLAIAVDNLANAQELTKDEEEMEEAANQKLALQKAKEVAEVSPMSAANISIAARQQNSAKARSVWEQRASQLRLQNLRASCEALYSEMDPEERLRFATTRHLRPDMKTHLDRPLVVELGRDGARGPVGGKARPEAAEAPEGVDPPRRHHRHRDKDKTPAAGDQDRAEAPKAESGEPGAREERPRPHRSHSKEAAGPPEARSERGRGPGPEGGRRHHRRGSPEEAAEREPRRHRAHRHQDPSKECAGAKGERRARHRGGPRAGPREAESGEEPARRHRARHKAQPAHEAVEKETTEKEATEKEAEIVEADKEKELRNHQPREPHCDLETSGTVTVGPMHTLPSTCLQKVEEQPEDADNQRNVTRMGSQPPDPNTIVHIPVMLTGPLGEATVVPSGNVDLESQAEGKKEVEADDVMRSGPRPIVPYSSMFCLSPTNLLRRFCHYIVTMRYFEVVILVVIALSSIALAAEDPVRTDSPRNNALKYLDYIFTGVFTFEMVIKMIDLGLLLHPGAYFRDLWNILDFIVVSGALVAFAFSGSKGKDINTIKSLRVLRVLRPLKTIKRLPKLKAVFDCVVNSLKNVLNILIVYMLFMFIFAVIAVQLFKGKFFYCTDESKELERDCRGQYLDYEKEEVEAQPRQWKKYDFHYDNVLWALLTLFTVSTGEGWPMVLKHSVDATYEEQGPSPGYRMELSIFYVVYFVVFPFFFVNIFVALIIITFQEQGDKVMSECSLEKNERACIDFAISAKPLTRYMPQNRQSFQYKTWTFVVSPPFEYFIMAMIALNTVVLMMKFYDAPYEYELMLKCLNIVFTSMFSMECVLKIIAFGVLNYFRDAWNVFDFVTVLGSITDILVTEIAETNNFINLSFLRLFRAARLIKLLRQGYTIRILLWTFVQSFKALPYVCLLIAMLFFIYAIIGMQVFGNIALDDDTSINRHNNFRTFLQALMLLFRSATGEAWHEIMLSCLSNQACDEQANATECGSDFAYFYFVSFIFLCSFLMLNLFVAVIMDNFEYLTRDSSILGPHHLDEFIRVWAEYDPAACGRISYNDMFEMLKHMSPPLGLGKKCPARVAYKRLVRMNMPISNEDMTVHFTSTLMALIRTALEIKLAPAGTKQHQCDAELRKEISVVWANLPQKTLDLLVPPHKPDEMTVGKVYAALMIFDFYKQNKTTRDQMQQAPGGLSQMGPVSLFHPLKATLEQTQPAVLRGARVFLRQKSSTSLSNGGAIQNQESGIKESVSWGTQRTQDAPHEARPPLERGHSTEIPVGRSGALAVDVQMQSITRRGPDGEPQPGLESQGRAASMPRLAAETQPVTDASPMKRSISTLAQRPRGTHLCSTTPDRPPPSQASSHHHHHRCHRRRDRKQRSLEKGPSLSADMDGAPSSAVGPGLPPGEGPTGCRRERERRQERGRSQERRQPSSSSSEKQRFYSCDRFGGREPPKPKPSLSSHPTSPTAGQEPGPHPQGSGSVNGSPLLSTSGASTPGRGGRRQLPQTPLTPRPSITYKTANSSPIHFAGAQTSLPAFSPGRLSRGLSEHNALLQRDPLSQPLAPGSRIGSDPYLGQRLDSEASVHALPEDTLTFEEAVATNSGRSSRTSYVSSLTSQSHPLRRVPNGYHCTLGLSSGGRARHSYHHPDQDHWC
Chain of human Cav2.2 (P54289 25-956 partner limits assumed): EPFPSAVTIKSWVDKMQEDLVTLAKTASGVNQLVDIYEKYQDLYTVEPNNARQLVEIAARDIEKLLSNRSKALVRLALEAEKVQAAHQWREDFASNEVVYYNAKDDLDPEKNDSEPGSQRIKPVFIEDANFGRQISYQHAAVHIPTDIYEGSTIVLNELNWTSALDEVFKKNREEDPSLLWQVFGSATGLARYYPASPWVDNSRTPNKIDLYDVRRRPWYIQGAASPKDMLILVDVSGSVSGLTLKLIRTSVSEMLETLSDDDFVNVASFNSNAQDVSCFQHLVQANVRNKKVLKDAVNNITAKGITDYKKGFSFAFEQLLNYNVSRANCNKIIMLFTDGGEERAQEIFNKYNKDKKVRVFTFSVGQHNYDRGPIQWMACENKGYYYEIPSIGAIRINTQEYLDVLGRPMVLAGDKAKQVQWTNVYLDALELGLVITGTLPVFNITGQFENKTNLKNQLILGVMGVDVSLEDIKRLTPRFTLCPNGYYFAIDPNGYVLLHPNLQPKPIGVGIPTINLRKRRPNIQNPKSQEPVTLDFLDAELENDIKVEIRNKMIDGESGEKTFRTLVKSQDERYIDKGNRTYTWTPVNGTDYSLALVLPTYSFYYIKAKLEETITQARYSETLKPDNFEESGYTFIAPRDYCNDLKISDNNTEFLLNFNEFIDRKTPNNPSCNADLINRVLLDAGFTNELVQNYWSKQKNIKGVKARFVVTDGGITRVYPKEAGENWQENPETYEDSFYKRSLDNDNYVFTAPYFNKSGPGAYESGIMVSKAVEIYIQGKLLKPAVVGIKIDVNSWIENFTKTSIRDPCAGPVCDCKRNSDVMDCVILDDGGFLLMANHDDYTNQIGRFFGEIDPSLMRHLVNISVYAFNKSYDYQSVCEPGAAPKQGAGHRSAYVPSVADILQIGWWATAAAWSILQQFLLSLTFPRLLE
Chain of human Cav2.2 (P54289 957-1103 partner limits assumed): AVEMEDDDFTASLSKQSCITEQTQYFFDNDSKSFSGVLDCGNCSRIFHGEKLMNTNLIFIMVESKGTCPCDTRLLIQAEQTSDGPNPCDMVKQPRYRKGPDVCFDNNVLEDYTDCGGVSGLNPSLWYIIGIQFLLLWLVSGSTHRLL
Chain of human Cav2.2 (P54284 whole entry partner): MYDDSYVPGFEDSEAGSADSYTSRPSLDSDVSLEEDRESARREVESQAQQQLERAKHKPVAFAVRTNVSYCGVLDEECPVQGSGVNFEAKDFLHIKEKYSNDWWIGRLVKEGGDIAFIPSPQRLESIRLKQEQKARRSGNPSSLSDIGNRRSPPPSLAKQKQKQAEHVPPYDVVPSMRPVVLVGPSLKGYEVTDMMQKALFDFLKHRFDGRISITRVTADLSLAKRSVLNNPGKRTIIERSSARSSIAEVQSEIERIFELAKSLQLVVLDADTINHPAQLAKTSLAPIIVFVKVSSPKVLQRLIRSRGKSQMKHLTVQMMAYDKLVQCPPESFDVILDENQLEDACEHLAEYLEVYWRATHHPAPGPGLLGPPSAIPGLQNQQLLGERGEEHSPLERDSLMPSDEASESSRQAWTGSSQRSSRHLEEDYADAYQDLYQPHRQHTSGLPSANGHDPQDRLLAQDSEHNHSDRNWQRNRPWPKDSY
Format: cell-based
Method in brief: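 IC50 values derive from nonlinear sigmoidal fitting of percent inhibition, relative to inhibitor-free activity, of Ca2+ influx read by FLIPR. Cells were IMR32 human neuroblastoma, plated at 1−1.2×10^5 per well and grown 48 h at 37 °C.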
Compound `CC(C)[C@@H](C(=O)N[C@@H]1CC[C@H]2CN(Cc3cccc(C(F)(F)F)c3)C[C@H]21)N(C)C(=O)OC(C)(C)C` [Example 316, tert-butyl methyl((S)-3-methyl-1-oxo-1-((3aS,4R,6aR)-2-(3-(trifluoromethyl)benzyl)octahydrocyclopenta[c]pyrrol-4-ylamino)butan-2-yl)carbamate] has an IC50 of 2.02 µM.
`CC(C)(C)[C@H](N)C(=O)N[C@H]1CC[C@@H]2CN(c3cccc(C(F)(F)F)n3)C[C@@H]21` [Example 591, 3-methyl-N-{(3aR,4S,6aS)-2-[6-(trifluoromethyl)pyridin-2-yl]octahydrocyclopenta[c]pyrrol-4-yl}-L-valinamide] was tested, and the IC50 was 0.5 µM.
With `Cc1nc(CN[C@H]2CC[C@@H]3CN(c4cccc(C(F)(F)F)n4)C[C@@H]32)c[nH]1` [Example 676, (3aR,4S,6aS)-N-[(2-methyl-1H-imidazol-4-yl)methyl]-2-[6-(trifluoromethyl)pyridin-2-yl]octahydrocyclopenta[c]pyrrol-4-amine] the IC50 was 4.2 µM.
In the case of `CN[C@@H](CO)C(=O)N[C@H]1CC[C@@H]2CN(c3ccc(C(F)(F)F)cc3)C[C@@H]21` [Example 749, N^2-methyl-N-{(3aR,4S,6aS)-2-[4-(trifluoromethyl)phenyl]octahydrocyclopenta[c]pyrrol-4-yl}-L-serinamide], the IC50 is reported as greater than 3 µM.
Compound `NC1(C(=O)N[C@H]2CC[C@@H]3CN(c4cccc(C(F)(F)F)n4)C[C@@H]32)CCCC1` [Example 594, 1-amino-N-{(3aR,4S,6aS)-2-[6-(trifluoromethyl)pyridin-2-yl]octahydrocyclopenta[c]pyrrol-4-yl}cyclopentanecarboxamide] has an IC50 of 1.45 µM.
In the case of `CN[C@H](C(=O)N[C@H]1CC[C@@H]2CN(c3ccc(OC(F)(F)F)cc3)C[C@@H]21)C(C)C` [Example 756, N^2-methyl-N-{(3aR,4S,6aS)-2-[4-(trifluoromethoxy)phenyl]octahydrocyclopenta[c]pyrrol-4-yl}-L-valinamide], the IC50 is reported as greater than 9.5 µM.
`CC(C)C(C(=O)N[C@H]1CC[C@@H]2CN(CCCCc3ccccc3)C[C@@H]21)c1ccccc1` (stereo partly drawn) [Example 113, 3-methyl-2-phenyl-N-[(3aR,4S,6aS)-2-(4-phenylbutyl)octahydrocyclopenta[c]pyrrol-4-yl]butanamide] was tested, and the IC50 was 0.59 µM.
`CN[C@@H](CC(C)C)C(=O)N[C@H]1CC[C@@H]2CN(c3cc(F)ccc3C(F)F)C[C@@H]21` [Example 770, N-{(3aR,4S,6aS)-2-[2-(difluoromethyl)-5-fluorophenyl]octahydrocyclopenta[c]pyrrol-4-yl}-N^2-methyl-L-leucinamide] gave an IC50 of 0.75 µM.
In the case of `O=C(N[C@H]1CC[C@@H]2CN(c3ccccc3Cl)C[C@@H]21)[C@@H]1C[C@@H](F)CN1` [Example 659, (4R)-N-[(3aR,4S,6aS)-2-(2-chlorophenyl)octahydrocyclopenta[c]pyrrol-4-yl]-4-fluoro-L-prolinamide], the IC50 is reported as 6.85 µM.
Work on `O=C(CC(c1ccccc1)c1ccccc1)N[C@H]1CC[C@H]2CN(Cc3cccc(C(F)(F)F)c3)C[C@H]21` (relative stereo) [Example 131, 3,3-diphenyl-N-{(3aS*,4S*,6aR*)-2-[3-(trifluoromethyl)benzyl]octahydrocyclopenta[c]pyrrol-4-yl}propanamide] yielded an IC50 of 0.66 µM.
Compound `O=C(N[C@H]1CC[C@@H]2CN(c3cccc(C(F)(F)F)c3)C[C@@H]21)[C@@H]1C[C@@H](F)CN1` [Example 617, (4R)-4-fluoro-N-{(3aR,4S,6aS)-2-[3-(trifluoromethyl)phenyl]octahydrocyclopenta[c]pyrrol-4-yl}-L-prolinamide] has an IC50 of 2.57 µM.
`COc1cccc(N2C[C@H]3CC[C@H](NC(=O)[C@@H]4C[C@@H](F)CN4)[C@H]3C2)c1` [Example 645, (4R)-4-fluoro-N-[(3aR,4S,6aS)-2-(3-methoxyphenyl)octahydrocyclopenta[c]pyrrol-4-yl]-L-prolinamide] gave an IC50 greater than 30 µM.
For `CN[C@@H](CC(C)C)C(=O)N[C@H]1CC[C@@H]2CN(c3cccc(C#N)c3)C[C@@H]21` [Example 646, N-[(3aR,4S,6aS)-2-(3-cyanophenyl)octahydrocyclopenta[c]pyrrol-4-yl]-N^2-methyl-L-leucinamide], the IC50 was 2.16 µM.
`N[C@@H](CC1CCCCC1)C(=O)N[C@H]1CC[C@@H]2CN(S(=O)(=O)c3ccc(C(F)(F)F)cc3)C[C@@H]21` [Example 426, 3-cyclohexyl-N^1-((3aR,4S,6aS)-2-{[4-(trifluoromethyl)phenyl]sulfonyl}octahydrocyclopenta[c]pyrrol-4-yl)-L-alaninamide] showed an IC50 of 1.79 µM.
`CN[C@H](CC(C)C)C(=O)N[C@H]1CC[C@@H]2CN(c3ccc(C(F)(F)F)cc3)C[C@@H]21` [Example 760, N^2-methyl-N-{(3aR,4S,6aS)-2-[4-(trifluoromethyl)phenyl]octahydrocyclopenta[c]pyrrol-4-yl}-D-leucinamide] gave an IC50 of 2.32 µM.
Compound `CC(C)C(C(=O)N[C@H]1CC[C@H]2CN(Cc3cccc(C(F)(F)F)c3)C[C@H]21)c1ccccc1` (relative stereo) [Example 122, 3-methyl-2-phenyl-N-{(3aS*,4S*,6aR*)-2-[3-(trifluoromethyl)benzyl]octahydrocyclopenta[c]pyrrol-4-yl}butanamide] has an IC50 of 0.36 µM.

Same assay, conditions: read-out: IC50 (μM) or percent inhibition (* indicates 3 minute incubation, otherwise 60 minute); IC50; 60 minute pre-incubation with compound; IMR32 cells, 80 mM KCl depolarization
“N^2-isopropyl-4-methyl-N^1-{(3aR,4S,6aS)-2-[2-(methylsulfonyl)pyrimidin-5-yl]octahydrocyclopenta[c]pyrrol-4-yl}-L-leucinamide [Example 493]” was tested, and the IC50 was 5.08 µM.
Work on `O=C(CCCCC(c1ccc(F)cc1)c1ccc(F)cc1)N[C@H]1CC[C@H]2CN(Cc3cccc(C(F)(F)F)c3)C[C@H]21` (relative stereo) [Example 130, 6,6-bis(4-fluorophenyl)-N-{(3aS*,4S*,6aR*)-2-[3-(trifluoromethyl)benzyl]octahydrocyclopenta[c]pyrrol-4-yl}hexanamide] yielded an IC50 of 0.79 µM.
In the case of `CC(C)C(C(=O)N[C@@H]1CC[C@H]2CN(Cc3cccc(C(F)(F)F)c3)C[C@H]21)c1ccccc1` (stereo partly drawn) [Example 82, 3-methyl-2-phenyl-N-{(3aS,4R,6aR)-2-[3-(trifluoromethyl)benzyl]octahydrocyclopenta[c]pyrrol-4-yl}butanamide], the IC50 is reported as 1.48 µM.
Compound `CC(C)(C)C(C(=O)N[C@@H]1CC[C@H]2CN(Cc3cccc(C(F)(F)F)c3)C[C@H]21)c1ccccc1` (relative stereo) [Example 147, 3,3-dimethyl-2-phenyl-N-{(3aS*,4R*,6aR*)-2-[3-(trifluoromethyl)benzyl]octahydrocyclopenta[c]pyrrol-4-yl}butanamide] has an IC50 of 0.51 µM.
`CC(C)C(C(=O)N[C@H]1CC[C@@H]2CN(Cc3cccs3)C[C@@H]21)c1ccccc1` (stereo partly drawn) [Example 102, 3-methyl-2-phenyl-N-[(3aR,4S,6aS)-2-(thien-2-ylmethyl)octahydrocyclopenta[c]pyrrol-4-yl]butanamide] was tested, and the IC50 was 2.77 µM.
Compound `CC(C)C(C(=O)N[C@H]1CC[C@@H]2CN(CCCC(c3ccc(F)cc3)c3ccc(F)cc3)C[C@@H]21)c1ccccc1` (stereo partly drawn) [Example 118, N-{(3aR,4S,6aS)-2-[4,4-bis(4-fluorophenyl)butyl]octahydrocyclopenta[c]pyrrol-4-yl}-3-methyl-2-phenylbutanamide] has an IC50 of 1.04 µM.
Work on `CCC[C@H](NC)C(=O)N[C@H]1CC[C@@H]2CN(S(=O)(=O)c3ccc(C(C)(C)C)cc3)C[C@@H]21` [Example 543, N^1-{(3aR,4S,6aS)-2-[(4-tert-butylphenyl)sulfonyl]octahydrocyclopenta[c]pyrrol-4-yl}-N^2-methyl-L-norvalinamide] yielded an IC50 of 3.2 µM.
